Reference: patent publication US8466286B2, “SMMR (small molecule metabolite reporters) for use as in vivo glucose biosensors” (Cercacor Laboratories, Inc., priority 2003, dated 2013)
Read-outs that look alike come from different tables or passages of the source.

Tests used:
PHK cells = test: In-vitro detection in PHK cells loaded with reporter, two-photon fluorescent imaging; assay type: cell-based; details: 50 micromolar reporter; glucose increased to 300 mg/dl; EM 440 nm, 2P excitation 705 nm
Protocol: PHK cells were loaded with AF-327d reporter, at 50 micromolar concentration, in buffer. Fluorescence was measured using a two-photon fluorescent imaging system at approximately EM 440 nm, and excitation at (2P) 705 nm. Pictures taken 10 minutes apart show a slight change in fluorescence intensity upon increasing the glucose concentration to 300 mg/dl in the cell buffer medium. This is seen clearly, as a 20% decrease in time course of fluorescence.

[1] = Glucose response rate in stirred cuvette, pH 8 phosphate buffer; details: 100 μL of 300 mg/dL glucose in pH 8 buffer; ex 340 nm, em 440 nm; read every 15 seconds
Protocol: Arg-327 unprotected batches were prepared. One batch was supplied as a yellow powder and the other as a concentrated solution in deuterated methanol. A small sample of these materials was taken and dissolved in 3 ml of pH 8 phosphate buffer. The fluorescence of these materials was excited at 340 nm and the emission monitored at 440 nm. The fluorescence was monitored every 15 seconds in a stirred cuvette. After about 3 minutes 100 μL of 300 mg/dL glucose in pH 8 buffer was added. […] Similar results were obtained for both samples.

[2] = for response to glucose in vitro: addition of glucose
living cells = test: Membrane potential (Rh123 fluorescence quenching) to track D-glucose in living cells; assay type: cell-based; details: glucose 0 to 5 mg/dL (0.28 mM)
Protocol: The fluorescence quenching is an indication of membrane potential changes within living cells with respect to an increase in glucose concentration, as shown in FIG. 17 (glucose from 0 to 400 mg/dL) and FIG. 18 (glucose from 0 to 66 mg/dL).
The saturation point value was expected to be between 0.0 and 2 mg/dL.

[3] = glucose zero to 300 mg/dL, in vitro

SMILES	response to glucose in vitro [2]	increase of fluorescence intensity with glucose [2, 3] [%]	further results
O=C(Nc1ccc2c(C(F)(F)F)cc(=O)oc2c1)c1ccc(B(O)O)cc1 [AF-327d]	stronger response to glucose than other published compounds	60	decrease in time course of fluorescence (PHK cells): 20%; glucose response rate (fluorescence after glucose addition) [1]: increased immediately; change of absorption spectrum at the excitation wavelength as a function of glucose concentration ([2]; excitation 375 nm): less than 10%; increase of fluorescence intensity with glucose ([2]; glucose range of 200 mg/dL, excitation 375 nm, emission 400-550 nm): at least 40%
O=C(Nc1ccc2oc(=O)c3ccccc3c2c1)c1ccc(B(O)O)cc1 [AF-345]		30	
COC(=O)c1ccccc1-c1c2ccc(=N)cc-2oc2cc(N)ccc12.Cl [Rh123]			Rh123 fluorescence with increasing glucose levels (living cells): approximate linear decrease
O=C(/C=C/c1ccc(B(O)O)cc1)c1cc2ccccc2oc1=O [AF-343]	No fluorescence or glucose effect		
O=C(Nc1ccc([N+](=O)[O-])cc1)c1ccc(B(O)O)cc1 [AF-339]	weaker than AF-327		
